Assay results reported in US12264156B2, “Compounds and pharmaceutical compositions thereof for the treatment of diseases” (GALAPAGOS NV, priority 2018, dated 2025).

What follows are compounds tested on LPS triggered IL-10 secretion in monocyte-derived macrophages (MdM) (assay: MdM assay: LPS-triggered IL-10 (ELISA)). Details: LPS 200 ng/mL, supernatant after 2 h, maximal fold change vs LPS only.
Type: cell-based, human
Description: SIK inhibition inhibits TNFα and increases IL-10 release in LPS triggered monocyte-derived macrophages (MdM) and dendritic […] al. 2012; Sundberg et al. 2014; Ozanne et al. 2015). This assay evaluates illustrative compounds of the invention for their inhibition of LPS-induced TNFα and LPS triggered IL-10 secretion in monocyte-derived macrophages. PBMCs are isolated from human blood samples (buffycoats). The buffy coat is aseptically transferred into a 50 mL Falcon tube, and diluted 1/2 in PBS. Falcon tubes are filled with 20 mL LymphoprepTM, on top of which 25 mL of the buffy coat is carefully added, tubes are centrifuged for 35 min at 400 g in temperature controlled centrifuge, without brake, at 25° C. PBMCs are aspirated from the white interface layer between sample and LymphoprepTM. PBMCs are washed five times in PBS. Cells are resuspended in RPMI 1640 complete medium supplemented with 10% FBS, 1% P/S, and cell density is determined using a hematologic analyzer (Sysmex XS-500i). PBMCs are centrifuged at 300×g for 10 min and resuspended at a density of 1.0*10^7 cells/80 μL Miltenyi buffer (PBS, pH 7.4, 1% FBS, 2 mM EDTA). Starting from this point of the protocol all steps are performed on ice. 20 μL of CD14+ micro-beads are added per 1.0*10^7 cells, the tube is mixed and incubated for 15 min in the fridge at 4° C. Cell suspension volume is adjusted to total volume of 100 mL using Miltenyi buffer, mixed gently and subsequently centrifuged for 10 min at 300×g. Supernantant is discarded and cell pellet is resuspended in 12 mL of Miltenyi buffer. Four LS columns are placed in the MACS Separator (magnet) from Miltenyi Biotec, and are prewet by rinsing with 3 mL of MACS buffer per column. Three mL of cell suspension is added onto the column (max 1*10^8 of labelled cells/column), and columns are subsequently washed 3 times with 3 mL of Miltenyi buffer. The columns are removed from the magnets, and 5 mL of Miltenyi buffer are added to the column to flush out the CD14+ fraction by pushing the plunger into the column. The flushed fractions are collected in a fresh 50 mL Falcon and volume is adjusted to 30 mL using Miltenyi buffer, cells are centrifuged for 10 min at 300×g. The obtained cell pellet is resuspended in 10 mL RPMI w/o FBS, and cell density is determined using a hematologic analyser (Sysmex XS-500i). 100 000 cells are seeded per well of a 96-well plate for differentiation to MdM in RPMI 1640 medium supplemented with 10% FBS, 1% P/S and 100 ng/mL rhM-CSF. On day 5 the medium is refreshed with 100 μL RPMI 1640 medium supplemented with 10% FBS, 1% P/S and 100 ng/mL rhM-CSF. On day 10, MdMs are triggered and compound is added. A compound dilution plate is made in 100% DMSO by 3-fold dilution of 10 mM stock solution. An intermediate dilution plate (10× final concentration) is made by diluting the compound dilution plate 50-fold in RPMI medium. Medium is carefully removed from cell plates using multichannel pipette, and replaced by 80 μL fresh medium. 10 μL of the 10× final concentration compound is added to the cells and incubated for 1 hour at 37° C. before addition of trigger. No trigger conditions/trigger conditions are spiked with equal final DMSO concentrations of 0.2% DMSO. 10 μL of 10×LPS (final conc. 200 ng/mL) solution are added to all wells except for the 'no trigger wells' where 10 μL medium is added. Supernatant is collected after 2 h (IL-10 determination) and after 20 h (TNFα determination) of LPS triggering. […]

| SMILES | IL-10 FCmax median |
| --- | --- |
| COc1cc(-c2cnc3cc(OCc4cnco4)ccn23)cc2c1C(=O)N(CC(F)(F)F)CC2 [compound 126, 8-methoxy-6-[7-(oxazol-5-ylmethoxy)imidazo[1,2-a]pyridin-3-yl]-2-(2,2,2-trifluoroethyl)-3,4-dihydroisoquinolin-1-one] | + (≤1.5) |
| COc1cc(-c2cnc3cc(OC[C@@H]4CN(C)CCO4)ccn23)cc2c1C(=O)N(CC(F)(F)F)CC2 [compound 191, 8-methoxy-6-[7-[[(2S)-4-methylmorpholin-2-yl]methoxy]imidazo [1,2-a]pyridin-3-yl]-2-(2,2,2-trifluoroethyl)-3,4-dihydroisoquinolin-1-one] | ++ (>1.5-4.5) |
| COc1cc(-c2cnc3cc(OCCN4CCOC[C@@H]4C)ccn23)cc(OC(F)F)c1C(=O)NC1CC1 [compound 233, N-cyclopropyl-2-(difluoromethoxy)-6-methoxy-4-[7-[2-[(3S)-3-methylmorpholin-4-yl]ethoxy]imidazo[1,2-a]pyridin-3-yl]benzamide] | ++ (>1.5-4.5) |
| COc1cc(-c2cnc3cc(OC[C@H]4CCCN4C)ccn23)cc2c1C(=O)N(CC(F)(F)F)CC2 [compound 124, 8-methoxy-6-[7-[[(2R)-1-methylpyrrolidin-2-yl]methoxy]imidazo[1,2-a]pyridin-3-yl]-2-(2,2,2-trifluoroethyl)-3,4-dihydroisoquinolin-1-one] | ++ (>1.5-4.5) |
| COc1cc(-c2cnc3cc(OCCN4CCCCC4)ccn23)cc2c1C(=O)N(CC(F)(F)F)CC2 [compound 40, 8-methoxy-6-[7-[2-(1-piperidyl)ethoxy]imidazo [1,2-a]pyridin-3-yl]-2-(2,2,2-trifluoroethyl)-3,4-dihydroisoquinolin-1-one] | ++ (>1.5-4.5) |
| CCN(CC)CCOc1ccn2c(-c3cc(OC)c(C(=O)NC4CC4)c(OC(F)F)c3)cnc2c1 [compound 107, N-cyclopropyl-4-[7-[2-(diethylamino)ethoxy]imidazo[1,2-a]pyridin-3-yl]-2-(difluoromethoxy)-6-methoxy-benzamide] | + (≤1.5) |
| COc1cc(-c2cnc3cc(OCCN4CCOC[C@@H]4C)ccn23)cc2c1C(=O)N(CC(F)(F)F)CC2 [Cpd 257, 8-methoxy-6-[7-[2-[(3S)-3-methylmorpholin-4-yl]ethoxy]imidazo[1,2-a]pyridin-3-yl]-2-(2,2,2-trifluoroethyl)-3,4-dihydroisoquinolin-1-one] | ++ (>1.5-4.5) |
| COc1cc(-c2cnc3cc(OC(C)C(F)(F)F)ccn23)cc(OC(F)F)c1C(=O)NC1CC1 (stereo not shown) [compound 45, N-cyclopropyl-2-(difluoromethoxy)-6-methoxy-4-[7-(2,2,2-trifluoro-1-methyl-ethoxy)imidazo[1,2-a]pyridin-3-yl]benzamide] | + (≤1.5) |
| COc1cc(-c2cnc3cc(OC[C@H]4COCCO4)ccn23)cc2c1C(=O)N(CC(F)(F)F)CC2 [Cpd 86, 6-[7-[[(2R)-1,4-dioxan-2-yl]methoxy]imidazo[1,2-a]pyridin-3-yl]-8-methoxy-2-(2,2,2-trifluoroethyl)-3,4-dihydroisoquinolin-1-one] | ++ (>1.5-4.5) |
| COc1cc(-c2cnc3cc(OCCN4CCOCC4)ccn23)cc2c1C(=O)N(CC(F)(F)F)CC2 [Cpd 88, 8-methoxy-6-[7-(2-morpholinoethoxy)imidazo [1,2-a]pyridin-3-yl]-2-(2,2,2-trifluoroethyl)-3,4-dihydroisoquinolin-1-one] | ++ (>1.5-4.5) |
| COc1cc(-c2cnc3cc(OCCCN(C)C)ccn23)cc(OC(F)F)c1C(=O)NC1CC1 [Cpd 13] | ++ (>1.5-4.5) |
| COc1cc(-c2cnc3cc(OCC(C)(C)N)ccn23)cc(OC(F)F)c1C(=O)NC1CC1 [compound 104, 4-[7-(2-amino-2-methyl-propoxy)imidazo[1,2-a]pyridin-3-yl]-N-cyclopropyl-2-(difluoromethoxy)-6-methoxy-benzamide] | + (≤1.5) |
| COc1cc(-c2cnc3cc(OCCCN4CC(O)C4)ccn23)cc(OC(F)F)c1C(=O)NC1CC1 [Cpd 286, N-cyclopropyl-2-(difluoromethoxy)-4-[7-[3-(3-hydroxyazetidin-1-yl)propoxy]imidazo[1,2-a]pyridin-3-yl]-6-methoxy-benzamide] | ++ (>1.5-4.5) |
| COc1cc(-c2cnc3cc(OCCN4C[C@@H]5C[C@H]4CO5)ccn23)cc(OC(F)F)c1C(=O)NC1CC1 [compound 206, N-cyclopropyl-2-(difluoromethoxy)-6-methoxy-4-[7-[2-[(1S,4S)-2-oxa-5-azabicyclo[2.2.1]heptan-5-yl]ethoxy]imidazo[1,2-a]pyridin-3-yl]benzamide] | ++ (>1.5-4.5) |
| COc1cc(-c2cnc3cc(OCCN(C)C)ccn23)cc(OC(F)F)c1C(=O)NCC(F)(F)F [compound 166, 2-(difluoromethoxy)-4-[7-[2-(dimethylamino)ethoxy]imidazo[1,2-a]pyridin-3-yl]-6-methoxy-N-(2,2,2-trifluoroethyl)benzamide] | ++ (>1.5-4.5) |
| COc1cc(-c2cnc3cc(OCCN4CCOC[C@H]4C)ccn23)cc(OC(F)F)c1C(=O)NC1CC1 [compound 234, N-cyclopropyl-2-(difluoromethoxy)-6-methoxy-4-[7-[2-[(3R)-3-methylmorpholin-4-yl]ethoxy]imidazo[1,2-a]pyridin-3-yl]benzamide] | ++ (>1.5-4.5) |
| COc1cc(-c2cnc3cc(OCCCN4CCCC(O)C4)ccn23)cc(OC(F)F)c1C(=O)NC1CC1 (stereo not shown) [compound 328, N-cyclopropyl-2-(difluoromethoxy)-4-[7-[3-(3-hydroxy-1-piperidyl)propoxy]imidazo [1,2-a]pyridin-3-yl]-6-methoxy-benzamide] | ++ (>1.5-4.5) |
| CCNCCOc1ccn2c(-c3cc(OC)c(C(=O)NC4CC4)c(OC(F)F)c3)cnc2c1 [compound 37, N-cyclopropyl-2-(difluoromethoxy)-4-[7-[2-(ethylamino)ethoxy]imidazo[1,2-a]pyridin-3-yl]-6-methoxy-benzamide] | ++ (>1.5-4.5) |
| COc1cc(-c2cnc3cc(OC[C@H]4COCCO4)ccn23)cc2c1C(=O)N(CC(F)F)CC2 [compound 219, 2-(2,2-difluoroethyl)-6-[7-[[(2R)-1,4-dioxan-2-yl]methoxy]imidazo[1,2-a]pyridin-3-yl]-8-methoxy-3,4-dihydroisoquinolin-1-one] | ++ (>1.5-4.5) |
| COc1cc(-c2cnc3cc(OC[C@H]4CN(C)CCO4)ccn23)cc2c1C(=O)N(CC(F)(F)F)CC2 [compound 190, 8-methoxy-6-[7-[[(2R)-4-methylmorpholin-2-yl]methoxy]imidazo[1,2-a]pyridin-3-yl]-2-(2,2,2-trifluoroethyl)-3,4-dihydro isoquinolin-1-one] | ++ (>1.5-4.5) |
| COc1cc(-c2cnc3cc(OCC4(F)CN(C)C4)ccn23)cc2c1C(=O)N(CC(F)(F)F)CC2 [compound 252, 6-[7-[(3-fluoro-1-methyl-azetidin-3-yl)methoxy]imidazo[1,2-a]pyridin-3-yl]-8-methoxy-2-(2,2,2-trifluoroethyl)-3,4-dihydro isoquinolin-1-one] | ++ (>1.5-4.5) |
| COc1cc(-c2cnc3cc(OCCN4CCCC4)ccn23)cc2c1C(=O)N(CC(F)(F)F)CC2 [compound 123, 8-methoxy-6-[7-(2-pyrrolidin-1-ylethoxy)imidazo[1,2-a]pyridin-3-yl]-2-(2,2,2-trifluoroethyl)-3,4-dihydroisoquinolin-1-one] | ++ (>1.5-4.5) |
